Source: article PMC8231400, “Synthesis, biological evaluation and molecular docking investigation of new sulphonamide derivatives bearing naphthalene moiety as potent tubulin polymerisation inhibitors” (Journal of Enzyme Inhibition and Medicinal Chemistry, 2021)
Blank lines part the entries; values can stand above or below the compound they belong to.

What was measured:
[1] = system: A549 human non-small cell lung carcinoma cells; assay: In vitro antiproliferative assay (CCK-8), A549; format: cell-based; conditions: CCK-8, 48 h, mean of three experiments
Experimental: (§1) In vitro antiproliferative assay 179 Human breast cancer cell line (MCF -7) and human non-small cell lung 180 carcinoma cell line (A549) were used to determine the antiproliferative of 181 the test compounds by CCK -8 assay. The cells were cultured in RPMI 182 media with 10% fetal bovine serum at 37 °C and 5% CO2 in a humidify 183 environment. In a word, cells were seeded in 96 -well plates 184 (1×10^5 cells/well) and cultured for overnight. […] Finally, 186 cell viability was determined by the CCK -8 method. 187 1.3. […] 190 EGTA) with 1 mM GTP and 5% glycerol. Then the plate was 191 immediately transferred to the spectrophotometer and microtubule 192 polymerization was monitored under 340 nm at 37 °C every 1 min over 193 20 min. […] 196 then the cells were treated with different concentrations of compound 5c 7

[2] = system: MCF-7 human breast cancer cells; assay: In vitro antiproliferative assay (CCK-8), MCF-7; format: cell-based; conditions: CCK-8, 48 h, mean of three experiments
Experimental: as §1

MCF-7 cancer cells [3] = assay: Annexin V-FITC/PI cell apoptosis assay; format: cell-based, human; parameters: Q1 quadrant / Q2 quadrant (upper right, late apoptotic cells) / Q4 quadrant / Q3 quadrant (lower right, early apoptotic cells): unit not given here; conditions: 24 h
Experimental: Since many literatures have reported that tubulin polymerisation inhibitors are able to induce cellular apoptosis [22]^,[30], the Annexin V-FITC/PI assay was carried out to examine the influence of compound 5c on cell apoptosis in MCF-7 cancer cells. […]
201 1.5. Cell apoptosis assay
203 then the cells were treated with different concentrations of compound 5c
204 for 24 h. Subsequently, the cells were incubated with Annexin-V/FITC
205 binding buffer and PI staining solution at room temperature. Finally, the
206 stained cells were analyzed using flow cytometry.
207 1.6. […]

MCF-7 cancer cells [4] = assay: Cell cycle assay by flow cytometry (PI); format: cell-based, human; conditions: 24 h
Experimental: Due to microtubules play an important role in eukaryotic cell division, tubulin polymerisation inhibitors can disrupt regulated cell cycle distribution and block the cell cycle in G2/M phase [21]^,[29]. Therefore, the effect of compound 5c on the cell cycle of MCF-7 cancer cells was evaluated by using flow cytometry. […] 172 51.01, 56.22, 60.63, 107.33, 125.00, 125.21, 125.24, 127.40, 128.17, […] HRMS (ESI) calcd for [M+Na] + 175 C26H24N2NaO7S+: 531.1196 found 531.1162. Elemental analysis for 176 C26H24N2O7S: C, 61.41; H, 4.76; N, 5.51; S, 6.30 found C, 61.52; H, 177 4.702; N, 5.21; S, 6.100. […] In vitro antiproliferative assay 179 Human breast cancer cell line (MCF -7) and human non-small cell lung 180 carcinoma cell line (A549) were used to determine the antiproliferative of 181 the test compounds by CCK -8 assay. The cells were cultured in RPMI 182 media with 10% fetal bovine serum at 37 °C and 5% CO2 in a humidify 183 environment. In a word, cells were seeded in 96 -well plates 184 (1×10^5 cells/well) and cultured for overnight. After incubation, the cells 185 were treated with test compounds and positive control for 48 h. Finally, 186 cell viability was determined by the CCK -8 method. 187 1.3. In vitro tubulin polymerization inhibitory assay 188 Tubulin protein was mixed with different concentrations of compound 5c […] 190 EGTA) with 1 mM GTP and 5% glycerol. Then the plate was 191 immediately transferred to the spectrophotometer and microtubule 192 polymerization was monitored under 340 nm at 37 °C every 1 min over 193 20 min. […] Cell cycle assay 195 MCF-7 cells were seeded into 6-well plates and incubated for 24 h, and 196 then the cells were treated with different concentrations of compound 5c 7 page 8: 197 for 24 h. After incubation, the cells were harvested by centrifugation, and 198 fixed in ice-cold 70% ethanol overnight. After removed the ethanol, the 199 cells were incubated with RNase and propidium iodide. Finally, the 200 samples were analyzed by flow cytometry. 201 1.5. Cell apoptosis assay […] 203 then the cells were treated with different concentrations of compound 5c 204 for 24 h. Subsequently, the cells were incubated with Annexin-V/FITC 205 binding buffer and PI staining solution at room temperature. Finally, the 206 stained cells were analyzed using flow cytometry. 207 1.6. Molecular docking 208 Molecular docking studies were performed to investigate the binding […] The 210 three-dimensional (3D) coordinate of tubulin (PDB ID: 1SA0) was 211 downloaded from Protein Data Bank (www.rcsb.org). The 3D structure of 212 the compounds was obtained by ChemBioDraw Ultra 14.0 and 213 ChemBio3D Ultra 14.0 softwares. The AutoDockTools 1.5.6 package was 214 employed to generate the docking input files. The search grid of tubulin 215 was identified as center_x: 118.921, center_y: 89.718, and center_z: 216 5.932 with dimensions size_x: 15, size_y: 15, and size_z: 15. The value 217 of exhaustiveness was set to 20. For Vina docking, the default parameters 218 were used if it was not mentioned. The best-scoring pose as judged by the 219 Vina docking score was chosen and visually analyzed using PyMoL 1.7.6 220 software (www.pymol.org). 221 1.7 Molecular dynamics 222 The Amber 12 1-3 and AmberTools 13 programs were used for MD 223 simulations of the selected docked pose. MBPPS was first prepared by 224 ACPYPE 4, a tool based on ANTECHAMBER 5, 6 for generating 8

[5] = Cytotoxicity against human normal liver cell line; format: cell-based; conditions: LO2 normal liver cells
tubulin = assay: In vitro tubulin polymerisation inhibitory assay (absorbance 340 nm); format: biochemical; conditions: 37 °C, 20 min, read-out: IC50 tubulin polymerisation inhibition
Experimental: In vitro antiproliferative assay 179 Human breast cancer cell line (MCF -7) and human non-small cell lung 180 carcinoma cell line (A549) were used to determine the antiproliferative of 181 the test compounds by CCK -8 assay. The cells were cultured in RPMI 182 media with 10% fetal bovine serum at 37 °C and 5% CO2 in a humidify 183 environment. In a word, cells were seeded in 96 -well plates 184 (1×10^5 cells/well) and cultured for overnight. […] Finally, 186 cell viability was determined by the CCK -8 method. 187 1.3. […] 190 EGTA) with 1 mM GTP and 5% glycerol. Then the plate was 191 immediately transferred to the spectrophotometer and microtubule 192 polymerization was monitored under 340 nm at 37 °C every 1 min over 193 20 min.

- IC50 ([1]; Homo sapiens, A549): 2.75 ± 0.31 µM
- IC50 ([2]; Homo sapiens, MCF7): 11.6 ± 0.6 µM
SMILES: O=c1[nH]cc(F)c(=O)[nH]1 [5-Fu, 5-fluorouracil, reference compound]

- IC50 ([1]; Homo sapiens, A549): 5.34 ± 0.31 µM
- IC50 ([2]; Homo sapiens, MCF7): 3.64 ± 0.25 µM
SMILES: COc1ccc(CN(c2cc(OC)c(OC)c(OC)c2)S(=O)(=O)c2ccc(C)cc2)cc1 [5a]

- IC50 ([1]; Homo sapiens, A549): > 30 µM
- IC50 ([2]; Homo sapiens, MCF7): > 30 µM
SMILES: COc1ccc(CN(c2cc(OC)c(OC)c(OC)c2)S(=O)(=O)c2ccccc2)cc1 [5b]

- IC50 ([1]; Homo sapiens, A549): 0.33 ± 0.01 µM
- IC50 ([2]; Homo sapiens, MCF7): 0.51 ± 0.03 µM
- IC50 (tubulin): 2800 nM
SMILES: COc1ccc(CN(c2cc(OC)c(OC)c(OC)c2)S(=O)(=O)c2cccc3ccccc23)cc1 [5c]
- Q1 quadrant (MCF-7 cancer cells [3]; MCF-7, 0.125 μM): 0.88
- Q2 quadrant (upper right, late apoptotic cells) (MCF-7 cancer cells [3]; MCF-7, 0.125 μM): 11.3
- Q3 quadrant (lower right, early apoptotic cells) (MCF-7 cancer cells [3]; MCF-7, 0.125 μM): 7.37
- Q4 quadrant (MCF-7 cancer cells [3]; MCF-7, 0.125 μM): 80.4
- total numbers of early and late apoptotic cells (MCF-7 cancer cells [3]; MCF-7, 0.125 μM): 18.67%
- Q1 quadrant (MCF-7 cancer cells [3]; MCF-7, 0.25 μM): 0.77
- Q2 quadrant (upper right, late apoptotic cells) (MCF-7 cancer cells [3]; MCF-7, 0.25 μM): 12.6
- Q3 quadrant (lower right, early apoptotic cells) (MCF-7 cancer cells [3]; MCF-7, 0.25 μM): 20.5
- Q4 quadrant (MCF-7 cancer cells [3]; MCF-7, 0.25 μM): 66.1
- total numbers of early and late apoptotic cells (MCF-7 cancer cells [3]; MCF-7, 0.25 μM): 33.1%
- total numbers of early and late apoptotic cells (MCF-7 cancer cells [3]; MCF-7, 0.5 µM): 50.3%
- Q1 quadrant (MCF-7 cancer cells [3]; MCF-7, 0.50 μM): 0.58
- Q2 quadrant (upper right, late apoptotic cells) (MCF-7 cancer cells [3]; MCF-7, 0.50 μM): 17.7
- Q3 quadrant (lower right, early apoptotic cells) (MCF-7 cancer cells [3]; MCF-7, 0.50 μM): 32.6
- Q4 quadrant (MCF-7 cancer cells [3]; MCF-7, 0.50 μM): 49.2
- G1 population (MCF-7 cancer cells [4]; MCF-7, 0.125 μM): 44.63%
- G2/M population (MCF-7 cancer cells [4]; MCF-7, 0.125 μM): 30.77%
- S population (MCF-7 cancer cells [4]; MCF-7, 0.125 μM): 24.59%
- G1 population (MCF-7 cancer cells [4]; MCF-7, 0.25 μM): 6.61%
- G2/M population (MCF-7 cancer cells [4]; MCF-7, 0.25 μM): 57.50%
- S population (MCF-7 cancer cells [4]; MCF-7, 0.25 μM): 35.89%
- G2/M population (MCF-7 cancer cells [4]; MCF-7, 0.5 µM): 82.22%
- G1 population (MCF-7 cancer cells [4]; MCF-7, 0.50 μM): 6.89%
- S population (MCF-7 cancer cells [4]; MCF-7, 0.50 μM): 10.89%
- IC50 [5]: 12.7 ± 3.26 µM

- IC50 ([1]; Homo sapiens, A549): > 30 µM
- IC50 ([2]; Homo sapiens, MCF7): 5.72 ± 0.18 µM
SMILES: COc1ccc(CN(c2cc(OC)c(OC)c(OC)c2)S(=O)(=O)c2ccc3ccccc3c2)cc1 [5d]

- IC50 ([1]; Homo sapiens, A549): 0.62 ± 0.04 µM
- IC50 ([2]; Homo sapiens, MCF7): 0.87 ± 0.05 µM
SMILES: COc1ccc(CN(c2cc(OC)c(OC)c(OC)c2)S(=O)(=O)c2ccc(OC)cc2)cc1 [5e]

- IC50 ([1]; Homo sapiens, A549): > 30 µM
- IC50 ([2]; Homo sapiens, MCF7): 20 ± 0.71 µM
SMILES: COc1cccc(CN(c2cc(OC)c(OC)c(OC)c2)S(=O)(=O)c2cccc3ccccc23)c1 [8a]

- IC50 ([1]; Homo sapiens, A549): 1.29 ± 0.19 µM
- IC50 ([2]; Homo sapiens, MCF7): 2.2 ± 0.19 µM
SMILES: COc1cc(N(Cc2ccc(C)cc2)S(=O)(=O)c2cccc3ccccc23)cc(OC)c1OC [8b]

- IC50 ([1]; Homo sapiens, A549): > 30 µM
- IC50 ([2]; Homo sapiens, MCF7): > 30 µM
SMILES: COc1cc(N(Cc2cccc(F)c2)S(=O)(=O)c2cccc3ccccc23)cc(OC)c1OC [8c]

- IC50 ([1]; Homo sapiens, A549): > 30 µM
- IC50 ([2]; Homo sapiens, MCF7): 8.02 ± 0.58 µM
SMILES: COc1cc(N(Cc2ccc(Br)cc2)S(=O)(=O)c2cccc3ccccc23)cc(OC)c1OC [8d]

- IC50 ([1]; Homo sapiens, A549): 14.4 ± 0.8 µM
- IC50 ([2]; Homo sapiens, MCF7): 15.6 ± 0.34 µM
SMILES: COc1cc(N(Cc2ccc(Cl)cc2)S(=O)(=O)c2cccc3ccccc23)cc(OC)c1OC [8e]

- IC50 ([1]; Homo sapiens, A549): > 30 µM
- IC50 ([2]; Homo sapiens, MCF7): > 30 µM
SMILES: COc1cc(N(Cc2cccc(Br)c2)S(=O)(=O)c2cccc3ccccc23)cc(OC)c1OC [8f]

- IC50 ([1]; Homo sapiens, A549): > 30 µM
- IC50 ([2]; Homo sapiens, MCF7): > 30 µM
SMILES: COc1cc(N(Cc2ccc(F)cc2)S(=O)(=O)c2cccc3ccccc23)cc(OC)c1OC [8g]

- IC50 ([1]; Homo sapiens, A549): > 30 µM
- IC50 ([2]; Homo sapiens, MCF7): > 30 µM
SMILES: COc1cc(N(Cc2ccc(C#N)cc2)S(=O)(=O)c2cccc3ccccc23)cc(OC)c1OC [8h]

- IC50 ([1]; Homo sapiens, A549): 4.76 ± 0.31 µM
- IC50 ([2]; Homo sapiens, MCF7): > 30 µM
SMILES: COc1cc(N(Cc2ccccc2[N+](=O)[O-])S(=O)(=O)c2cccc3ccccc23)cc(OC)c1OC [8i]

SMILES: COc1ccc(/C=C\c2cc(OC)c(OC)c(OC)c2)cc1O [CA-4, combretastatin A-4, reference compound]
- IC50 ([1]; Homo sapiens, A549): 0.029 ± 0.004 µM
- IC50 ([2]; Homo sapiens, MCF7): 5.55 ± 0.11 µM

SMILES: N.N.[Cl][Pt][Cl] [Cisplatin, reference compound]
- IC50 [1]: 4.92 ± 0.46 µM
- IC50 [2]: 11.2 ± 0.75 µM
